“Also recorded” adds a separate entry of the source.
Columns and labels:
[1] = tested on: SH-SY5Y neuroblastoma cells; test: Cellular assay for generation of reactive oxygen species (ROS); format: cell-based; details: 30 minutes with test compound
Experimental: All cell culture reagents were incubated in a water bath at 37° C. for approximately 30 minutes. Existing media from a near confluent tissue culture flask containing SH-SY5Y neuroblastoma cells was aspirated using a flame sterilized glass transfer pipette attached to a trapped vacuum apparatus. Calcium free PBS buffer was pipetted into the tissue culture flask (2 ml for a 75 cm2 flask, 3 ml for a 175 cm^2 flask). The flask was tipped slightly to ensure that the buffer covers the cell culture and then the buffer was removed by aspiration. Trypsin media was pipetted into the tissue culture flask (2 ml for a 75 cm^2 flask, 3 ml for a 175 cm^2 flask) and evenly spread to ensure that the trypsin covered the cell culture. The cell culture was incubated with trypsin media for 4-6 minutes at room temperature. After cells were released from the flask, the flask was tilted to one corner. Using the existing media within the flask, the aggregated cells were collected towards one corner and repeatedly pipetted to obtain a single cell suspension. The cell suspension was transferred with a pipette into a 15 ml conical shaped centrifuge tube then cell culture media was added to the suspension up to a total volume of 14 ml. Ten μl aliquots were withdrawn and the cells were counted using a hemocytometer. The suspension was centrifuged at 200×g for 10 minutes, the supernatant was aspirated off, and the cell pellet was resuspended at 3.75×10^5 cells/ml in cell culture medium. Two hundred μl of cell suspension were aliquoted per well in the 96 well dish to obtain a final cell number of 75,000 cells per well. The plates were incubated overnight at 37° C. and 5% CO2 in a humidified cell incubator.
The medium was carefully removed from the wells by aspiration with an 18 g needle. The wells were gently rinsed once with 200 μl of warm Hanks balanced saline solution (HBSS, Gibco-BRL). […]
Stock solutions of test compound, such as Co-PP, Co-MP, or a Co-P of this invention, and of an H2O2 scavenger such as ebselen, were typically prepared in dimethylformamide or dimethylsulfoxide and diluted further into working concentrations using HBSS. […] The plate was read immediately in Cytofluor model 2350 system (Millipore; excitation wavelength: 485 nm; emission wavelength: 530 nm) for a 0 min timepoint reading. The cells were incubated for 30 minutes at room temperature with test compound following which a 30 min reading was taken. The change in RMF over the 30 minutes period was calculated for each well. […] The plate was then read in the Cytofluor (excitation wavelength: 360 nm; emission wavelength: 460 nm) and the Hoechst fluorescence values were used to normalize the DCFC-DA RMF data.

[2] = Oxygen consumption catalyzed by Co-P in the presence of ascorbate/TMPD (Clark oxygen electrode); details: 2 mM ascorbate, 40 μM TMPD
Experimental: (Co-MP). Such activity can be readily determined by, for example, the assay disclosed in Example 16. In that assay, redox activity is measured by oxygen consumption catalyzed by a Co-P test compound in the presence of ascorbate and TMPD.
Ten mM stock solutions of a Co-P of this invention (i.e., test compound) were prepared using ethanol as solvent. KCl media consists of 125 mM KCl, 2 mM K2HPO4, 20 mM HEPES, pH 7.0. Oxygen consumption measurements were carried out using a Clark type oxygen electrode (Rank Brothers Ltd., Cambridge, UK) and assay solutions were magnetically stirred during the course of the experiments. To 500 μl of assay solution (KCl media supplemented with 2 mM sodium ascorbate and 40 μM […] (TMPD)) is added 2 μl of a stock solution of test compound (40 μM final concentration) and the oxygen consumption rate is followed for 2-4 min. Subsequently, a 5 μl aliquot of a freshly made catalase solution (100 mg/ml solution in KCl media) is added to determine if H2O2 is generated via redox cycling of the test compound.
Initial rates are calculated from oxygen consumption slopes and rate of a solvent control is subtracted. […] An aliquot of a 10 mM stock solution of Co-MP (final concentration of 40 μM) was added to assay buffer containing 2 mM of ascorbate and 40 μM of TMPD. […] Addition of catalase results in conversion of H2O2 present in the assay solution to O2 and H2O.
Stock solutions of the test compound were at 10 mM. Aliquots of the stock solutions were added to 500 μl of assay buffer containing 2 mM of ascorbate and 40 μM of TMPD.
Representative Co-P compounds of this invention were prepared by the procedures disclosed above, and assayed by the procedure of Example 16 to measure oxygen consumption catalyzed by the test compound in the presence of ascorbate/TMPD. […] The above procedure was then repeated for other representative Co-P compounds of this invention, but utilizing different ligands and/or R groups.

[3] = Weight loss assay; format: in vivo, Male Sprague Dawley rats; details: 12 mM in vehicle, 400 μl per 100 grams body weight, subcutaneous, nuchal area, 8 days
Experimental: (§1) Male Sprague Dawley rats (approximately 200 g) were purchased from Charles River Canada, Inc. and were shipped to the Animal Care Facility at the University of Vermont. Upon arrival they were housed in separate cages with corncob bedding and ad lib access to tap water and purina rat chow. The animal facility is maintained at a temperature of 71° F. +/− 1° F. with a 12-hour light/dark cycle, lights on at 6:00 am and off at 6:00 pm. Two days later (Day-3) all rats were shaved in the nuchal area and baseline color photographs of the nuchal area were taken (light halothane anesthesia was utilized to facilitate the shaving). Three days later (Day 0) experimental compounds were made up at 12 mM concentrations in vehicle (i.e., saline:PEG400:EtOH (5:4:1), pH 7.4). Animals were injected subcutaneously in the nuchal area with the various stock solutions at a dose of 400 μl per 100 grams body weight. Typical injection volumes, therefore, range from 1 to 1.5 ml per animal. Animals were injected using a modified Z-track technique to try and minimize outflow of injected compounds due to the high volume utilized. Each animal was weighed prior to injection and all injections were accomplished in an approximately two-hour period. No anesthesia was utilized for injections.
Animals subsequently underwent daily weighing with a Mettler 6 second integrating balance and had ad lib access to tap water and purina rat chow. At various intervals after injections, the nuchal area of rats was again photographed. […] The scale used was 0 for no lesions, 5 for the worst lesions with breakdown of the skin and open flow of exudates. Grades in-between were estimated by the operator based on the size and severity of the lesion. […] After 8 days, final photographs were taken and all animals were euthanized, marking the end of the experiment.
Means of body weights for each group were calculated and plotted over time (FIG. 9A), as were numerical means of the lesion severity index (FIG. 9B). In FIGS. 9A and 9B, C=noninjected control, V=vehicle injected control, A=Co-MP, E=Cpd. No. (1-6) and F=Cpd. No. (4-4). […] Cpd.

[4] = Lesion severity assay (nuchal injection site); format: in vivo, Male Sprague Dawley rats; details: scale 0 no lesions to 5 worst lesions; 12 mM, 400 μl per 100 grams body weight, subcutaneous, nuchal area, 8 days
Experimental: as §1, with “No anesthesia was utilized for injections.” left out
Means of body weights for each group were calculated and plotted over time (FIG. 9A), as were numerical means of the lesion severity index (FIG. 9B). […]

[5] = rat, in vivo; cited from earlier work

With cobalt mesoporphyrin [Co-MP] the “generation of reactive oxygen species (DCFC-DA fluorescence)” value [1] was “reactive oxygen species were induced”, the “Relative Rate (oxygen consumption), effect of ligand” value ([2]; Table 1, Co-MP with L1 = L2 varied, 40 μM test compound, normalized to chloride salt of Co-MP = 1) was 1 (assigned value) and the “Relative Rate (oxygen consumption), effect of ligand and R5 moiety” value ([2]; Table 2, 40 μM test compound, normalized to chloride salt of Co-MP = 1) was 1 (assigned value). The “Relative Rate (oxygen consumption), effect of ligand, R5 and A moiety” value ([2]; Table 3, 40 μM test compound, normalized to chloride salt of Co-MP = 1) was 1 (assigned value), the “Relative Rate (oxygen consumption), effect of ligand, R5, A and n moiety” value ([2]; Table 4, 40 μM test compound, normalized to chloride salt of Co-MP = 1) was 1.0 (assigned and the “O2 consumption / redox cycling (in words)” value ([2]; cell free ascorbate/TMPD system) was “immediate depletion of dissolved O2; also recorded: triggers robust consumption of O2”. For the same substance, the body weight response [3] was “greatest body weight response”, the lesion severity [4] was “greatest lesion severity” and the “body weight regulating effect compared with Co-PP” value [5] was “comparable biological profile”.
